Article PMC11881577, “In vitro and in vivo activity of 1,2,3,4,6-O-pentagalloyl-glucose against Candida albicans” (Antimicrobial Agents and Chemotherapy, 2025)

Experiments:
[1] = target: T1, hEno1 (Homo sapiens, UniProt P06733); assay: spectrophotometric enolase assay (PEP formation at […] nm) on purified enzyme; format: biochemical
T1 construct: gene ENO1; recombinant hEno1, expressed and purified using the same procedure as CaEno1

[2] = target: T2, CaEno1 (Candida albicans, UniProt P30575); assay: spectrophotometric enolase assay (PEP formation at […] nm) on purified enzyme; supported by DARTS; format: biochemical
T2 construct: gene ENO1; recombinant, 6 × His tag, expressed in E. coli BL21(DE3)
T2 sequence (P30575 whole entry): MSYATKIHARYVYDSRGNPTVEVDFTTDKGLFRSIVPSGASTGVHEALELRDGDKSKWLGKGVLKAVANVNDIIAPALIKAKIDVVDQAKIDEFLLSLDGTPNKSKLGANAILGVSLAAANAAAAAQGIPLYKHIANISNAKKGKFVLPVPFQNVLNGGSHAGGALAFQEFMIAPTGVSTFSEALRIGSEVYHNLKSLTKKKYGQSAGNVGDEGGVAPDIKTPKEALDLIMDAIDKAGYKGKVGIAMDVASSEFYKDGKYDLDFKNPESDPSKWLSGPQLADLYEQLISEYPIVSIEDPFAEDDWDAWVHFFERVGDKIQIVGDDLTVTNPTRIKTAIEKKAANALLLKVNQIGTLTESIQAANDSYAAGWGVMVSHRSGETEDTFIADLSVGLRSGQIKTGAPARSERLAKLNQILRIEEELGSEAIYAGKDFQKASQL

T1 sequence (P06733 2-434): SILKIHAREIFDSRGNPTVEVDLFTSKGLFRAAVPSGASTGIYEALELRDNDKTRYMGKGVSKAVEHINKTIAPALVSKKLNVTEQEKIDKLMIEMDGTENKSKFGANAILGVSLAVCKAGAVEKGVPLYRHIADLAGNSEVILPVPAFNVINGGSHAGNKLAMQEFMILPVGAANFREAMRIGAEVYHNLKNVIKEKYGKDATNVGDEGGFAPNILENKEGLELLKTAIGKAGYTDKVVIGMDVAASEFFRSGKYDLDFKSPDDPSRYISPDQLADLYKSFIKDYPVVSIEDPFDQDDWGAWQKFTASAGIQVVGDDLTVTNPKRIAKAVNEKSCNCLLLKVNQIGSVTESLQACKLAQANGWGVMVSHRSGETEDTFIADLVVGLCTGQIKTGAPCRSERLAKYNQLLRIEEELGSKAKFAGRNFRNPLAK

`O=C(OC[C@H]1O[C@@H](OC(=O)c2cc(O)c(O)c(O)c2)[C@H](OC(=O)c2cc(O)c(O)c(O)c2)[C@@H](OC(=O)c2cc(O)c(O)c(O)c2)[C@@H]1OC(=O)c1cc(O)c(O)c(O)c1)c1cc(O)c(O)c(O)c1` [1,2,3,4,6-O-pentagalloyl-glucose] gave an IC50 [1] of 1.5 ± 0.27 µM and a Ki [2] of 1.1 ± 0.14 µM.
